Laboratory results reported in patent publication US20210363110A1, “4-METHYLDIHYDROPYRIMIDINONE COMPOUNDS AND PHARMACEUTICAL USE THEREOF” (Japan Tobacco Inc., priority 2018, published 2021).
In brackets after ≈: the same amount, converted by molar mass. Read-outs that look alike come from different tables or passages of the source.

How the values were obtained:
mouse RORγ = target: T1, mouse RORγ (Mus musculus, UniProt P51450); assay: Reporter gene assay for inhibitory effect against RORγ transcriptional activity (GAL4-mRORγ LBD, luciferase, CHO cells); format: cell-based; details: pFA/mRORγ + pG5-Luc, 2 days incubation
T1 construct: from Ile251 to Lys516 for mouse RORγ; expressed in transfected cells; host or cells: CHO cells (transient co-transfection with pG5-Luc)
T1 sequence (P51450 251-516): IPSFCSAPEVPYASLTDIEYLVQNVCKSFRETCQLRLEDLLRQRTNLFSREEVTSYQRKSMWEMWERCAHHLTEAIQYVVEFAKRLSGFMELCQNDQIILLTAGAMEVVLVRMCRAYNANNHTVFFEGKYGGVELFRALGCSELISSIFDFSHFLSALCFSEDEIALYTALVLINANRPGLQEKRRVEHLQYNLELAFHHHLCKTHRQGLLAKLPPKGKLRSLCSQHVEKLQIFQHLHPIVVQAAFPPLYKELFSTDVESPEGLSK
Procedure: Inhibitory effect against RORγ transcriptional activity was assessed by reporter gene assay for test compounds.
cDNAs encoding human and mouse RORγ ligand binding domains (LBD) were obtained based on the sequences of human RORγ (Genbank registered number NM_005060.3) and mouse RORγ (Genbank registered number NM_011281.2) (LBD sequences: from Ser253 to Lys518 for human RORγ; from Ile251 to Lys516 for mouse RORγ).
LBD cDNAs of human and mouse RORγ were inserted into pFA-CMV vector (Agilent Technologies, Inc.), which expresses GAL4-DNA binding domain fusion protein. The resulting plasmids are hereinafter referred to as pFA/hRORγ plasmid and pFA/mRORγ plasmid, respectively. […]
Cell viability was tested by luminescence method with CellTiter-Glo (Promega). […] Ten minutes after the addition, luminescence was measured for each well with a microplate reader. The luminescence count in the cells treated with 0.2% DMSO alone was defined as 100%, and the cell viability after treatment with the test compound was calculated as a percentage (%-of-control) based on the value of 0.2% DMSO alone. When the cell viability was 70% or less, a test compound was assessed to have cytotoxicity.
RORγ transcriptional activity was detected as the intracellular luciferase activity using SteadyLite HTS Reporter Gene Assay System (Perkin Elmer). […]

[1] = Measurement of solubility (JP1, JP2, FaSSIF, FeSSIF); format: physicochemical; details: thermodynamic from solid, shaken 4 hours
Procedure: A 10 mM DMSO solution (10 μL) of test substance was added to a 96-well plate, and the mixture was concentrated and dried with a centrifugal evaporator (Genevac HT-4X). 200 μL of each solvent (JP1, JP2, FaSSIF, FeSSIF) (see Non Patent Literatures 29 and 30) was added to the well after evaporation. The mixture was shaken at room temperature at 2500 rpm for 4 hours. Then, the mixture was filtered in two parts with MultiScreen PCF filter (MERCK Millipore; MSSLBPC) to give samples (50 and 100 μL). 40 μL was collected from the sample obtained in the second filtration, and thereto was added acetonitrile (300 μL). After centrifugation (4000 g, 5 min.) of the mixture, a part of the supernatant was measured by LC-UV/MS (UPLC-Premier (waters)).

[2] = Metabolic stability in hepatocytes, monkey; format: in vitro ADME; details: residual ratio of unreacted substance, 1×10^6 cells/mL
Procedure: A test solution was prepared by diluting 10 mM DMSO solution of a test substance with acetonitrile by 20 times.
Human and animal cryopreserved hepatocyte (BIOIVT; Human (IVT-X008000), Rat (IVT-M00005), Monkey (IVT-M00305), Dog (IVT-M00205)) were adjusted with William's Medium E (SIGMA; W1878) to 1×10^6 cells/mL of a cell suspension, which was then added to a 96-well plate. Then, 1% of the solution of a test substance prepared was added to the reaction system, and the metabolic reaction was initiated. At a designated time, 0.1% formic acid-acetonitrile was added thereto, and the reaction was terminated.
The sample after termination of the reaction was separated by centrifugation (1400 g, 20 min.), and then the supernatant was measured by LC/MS (UPLC-SQD (waters)) to calculate a residual ratio of unreacted substances.

[3] = pH 1.2, simulated gastric fluid, JP1, room temperature, read-out: Solubility JP1
[4] = pH 6.8, aqueous buffer, JP2, room temperature, read-out: Solubility JP2
[5] = FaSSIF, room temperature, read-out: Solubility FaSSIF
[6] = FeSSIF, room temperature, read-out: Solubility FeSSIF

SMILES	EC50 (mouse RORγ)	solubility at 4 h [1, 3]	solubility at 4 h [1, 4]	solubility at 4 h [1, 5]	solubility at 4 h [1, 6]	Metabolic stability in hepatocytes at 240 min., Monkey [2]
CC[C@H](C)C1=CN(C23CC(C(=O)O)(C2)C3)C(=O)N[C@@]1(C)c1ccc([C@@H]2C[C@H]2C(C)(C)C)c(Cl)c1 [Compound (2), 3-{(S)-5-((S)-sec-Butyl)-4-[4-((1R,2R)-2-tert-butyl-cyclopropyl)-3-chloro-phenyl]-4-methyl-2-oxo-3,4-dihydro-2H-pyrimidin-1-yl}bicyclo[1.1.1]pentane-1-carboxylic acid]	29 nM	< 0.7 µM	447 µM (≈ 217 µg/mL)	445 µM (≈ 216 µg/mL)	463 µM (≈ 225 µg/mL)	85%
CC(C)C1=CN(C23CC(C(=O)O)(C2)C3)C(=O)N[C@@]1(C)c1ccc([C@@H]2C[C@H]2C(C)(C)C)c(Cl)c1 [Compound (1), 3-{(S)-4-[4-((1R,2R)-2-tert-Butyl-cyclopropyl)-3-chloro-phenyl]-5-isopropyl-4-methyl-2-oxo-3,4-dihydro-2H-pyrimidin-1-yl}bicyclo[1.1.1]pentane-1-carboxylic acid]	23 nM	< 0.8 µM	451 µM (≈ 212 µg/mL)	470 µM (≈ 221 µg/mL)	≥ 475 µM	83%
